What all share (type): cell-based
A short description of experiment [1]: MIC by broth dilution assay. As to conditions: 144 h, Table 6d, no sorbitol, 2 ×10^5 organisms/mL. The procedure: Minimal inhibitory concentrations (MICs) were determined by a broth dilution assay described by Frost, D., Brandt, K., Cugier, D., and Goldman, R. in J. Antibiotics 48: 306-310 (1995) which is incorporated herein by reference. The final concentration of cells was 2 ×10^5 organisms/mL.
On the technique in general: In broth dilution the organism is exposed to a series of concentrations in liquid medium.

The next experiment relates to Candida albicans CCH 442. The experiment is described as follows: MIC by agar dilution method. Here is the method:
(§1) Minimal inhibitory concentrations (MICs) were determined by an agar dilution method. The test compounds were serially diluted in MeOH and 0.2 mL portions were mixed with 20 mL of molten, cooled Sabouraud dextrose agar (Difco). Yeast cell inoculum was prepared by growing cultures on Sabouraud dextrose agar for 18 hours at 32° C. and suspending the cells in phosphate buffered saline. Filamentous fungi were grown under the same conditions for 4 days to obtain spores. The inoculum level for all cultures was adjusted to 10^4 cells using a Petroff-Hauser cell counter. The glutarimide antifungal compounds cycloheximide or amphotericin B were used as a control. Inoculated test plates were incubated at 32° C. and examined after 20 hours.
(In general: Agar dilution tests growth on a series of plates holding different concentrations.)

The next experiment deals with Candida kefyr ATTC 288. The experiment is described as follows: MIC by agar dilution method. The settings on record: Kluyveromyces marxianus, ATCC288, 20 h. The procedure:
as §1

Experiment [2] relates to Aspergillus niger ATCC 164. The experiment is described as follows: MIC by agar dilution method. The procedure:
as §1

Experiment [3] deals with Saccharomyces cereviseae GS1-36. The experiment is described as follows: MIC by agar dilution method. Here is the method:
as §1

The next experiment concerns Candida albicans 579a. The experiment is described as follows: MIC by agar dilution method. As to conditions: Candida albicans, 579A, 20 h. Here is the method:
as §1

The subject of experiment [4] is Candida tropicalis NRRL-Y-1. The experiment is described as follows: MIC by agar dilution method. Here is the method:
as §1

In experiment [5] the test system is Candida albicans ATCC 623. The experiment is described as follows: MIC by agar dilution method. The procedure:
as §1

Experiment [6] deals with Torulopsis glabrata ATCC 155. The experiment is described as follows: MIC by agar dilution method. The settings on record: Nakaseomyces glabratus. The procedure: as §1
Experiment [7] concerns Candida albicans ATCC 102. The experiment is described as follows: MIC by agar dilution method. As to conditions: ATCC102, 20 h. Here is the method:
as §1

For experiment [8], the system named is Candida albicans ATCC 382. The experiment is described as follows: MIC by agar dilution method. As to conditions: ATCC382, 20 h. The procedure:
as §1

The test system of experiment [9] is Cryptococcus albidus ATCC 341. The experiment is described as follows: MIC by agar dilution method. The settings on record: Naganishia albida, ATCC341, Table 6b, 32° C., 20 hours. Here is the method:
as §1

Experiment [10] deals with Staphylococcus aureus ATTC 6538p. The experiment is described as follows: MIC by agar dilution method. The settings on record: Staphylococcus aureus, ATTC6538P, 20 h.
Experiment [11] has as its system Streptococcus bovis A-5169. The experiment is described as follows: MIC by agar dilution method. As to conditions: Streptococcus equinus, A5169, 20 h.
Experiment [12] relates to Streptococcus pyrogenes EES61. The experiment is described as follows: MIC by agar dilution method. As to conditions: Streptococcus, EES61, 20 h.
Experiment [13] relates to Candida albicans ATCC 997. The experiment is described as follows: MIC by agar dilution method. As to conditions: Candida albicans, ATCC997, 20 h. Here is the method: as §1
The test system of experiment [14] is Nocardia asteroides ATTC 9970. The experiment is described as follows: MIC by agar dilution method. As to conditions: Nocardia asteroides, ATTC9970, 20 h.

In brackets after ≈: the same amount, converted by molar mass. Where two headings read alike, the source gives them in different places.

What is called MIC is the least concentration at which growth counts as inhibited.

Regarding `C[C@@H]1[C@H](O)[C@@H](C)/C=C/C=C/C=C/C=C/C=C/C=C/C=C/[C@H](O[C@@H]2O[C@H](C)[C@@H](O)[C@H](N)[C@@H]2O)C[C@@H]2O[C@](O)(C[C@@H](O)C[C@@H](O)[C@H](O)CC[C@@H](O)C[C@@H](O)CC(=O)O[C@H]1C)C[C@H](O)[C@H]2C(=O)O` [Amphotericin B, amphotericin B, reference compound], the minimum inhibitory concentration (MIC) in experiment [1] turned out to be 0.24 mg/L (≈ 0.26 µM); in the experiment on Candida albicans CCH 442 (CCH442, Table 6b, Candida albicans CCH 442, agar dilution, 32° C., 20 hours, read-out: MIC), 1.56 mg/L (≈ 1.69 µM); with Candida kefyr ATTC 288 it was 1.56 mg/L (≈ 1.69 µM); in [2] (ATCC164, Table 6b, Aspergillus niger ATCC 164, agar dilution, 32° C., 20 hours, read-out: MIC), 1.56 mg/L (≈ 1.69 µM); in [3] (GS136, Table 6b, Saccharomyces cereviseae GS1-36, agar dilution, 32° C., 20 hours, read-out: MIC) it was 1.56 mg/L (≈ 1.69 µM); in the experiment with Candida albicans 579a it was 1.56 mg/L (≈ 1.69 µM). The minimum inhibitory concentration (MIC) in experiment [4] (NRRLY1, Table 6b, Candida tropicalis NRRL Y-1, agar dilution, 32° C., 20 hours, read-out: MIC) was determined as 1.56 mg/L (≈ 1.69 µM); in experiment [5] (ATCC623, Table 6b, Candida albicans ATCC 623, agar dilution, 32° C., 20 hours, read-out: MIC) it was 1.56 mg/L (≈ 1.69 µM); in experiment [6] (ATCC155, Table 6b, Torulopsis glabrata ATCC 155, agar dilution, 32° C., 20 hours, read-out: MIC) it was 1.56 mg/L (≈ 1.69 µM); in experiment [7], 1.56 mg/L (≈ 1.69 µM); in [8], 50 mg/L (≈ 54.1 µM); in experiment [9], 3.12 mg/L (≈ 3.38 µM).
On to `C[C@@H]1C[C@@H]([C@H](O)CC2CC(=O)NC(=O)C2)C(=O)[C@@H](C)C1` [Cycloheximide, cycloheximide, reference compound], for which the MIC in experiment [10] was 0.8 mg/L (≈ 2.84 µM); in experiment [11] it was 25 mg/L (≈ 88.9 µM); in [12] it was 50 mg/L (≈ 178 µM); against Candida albicans CCH 442 (Candida albicans, CCH442, 20 h) it was over 100 mg/L; in experiment [2] (Aspergillus niger, ATCC164, 20 h), 1.6 mg/L (≈ 5.69 µM); in [3] (Saccharomyces, GS136, 20 h), under 0.05 mg/L. Further, the minimal inhibitory concentration (MIC) in experiment [4] (Candida tropicalis, NRRLY1, 20 h) was 0.4 mg/L (≈ 1.42 µM); in experiment [5] (Candida albicans, ATCC623, 20 h), over 100 mg/L; in experiment [6] (ATCC155, 20 h) it was 0.4 mg/L (≈ 1.42 µM); in [13] it was over 100 mg/L; in experiment [14], 1.6 mg/L (≈ 5.69 µM).
